According to US20250171400A1, “AZA-HETEROCYCLYL CARBOXAMIDE AND RELATED COMPOUNDS AND THEIR USE IN TREATING MEDICAL CONDITIONS” (X-BIOTIX THERAPEUTICS, INC., priority 2021, published 2025):
Values after ≈ are worked out from the molar mass of the structure shown. Like-named read-outs stand apart in the source and are kept apart here.

Experiments:
[1] = target: P. aeruginosa LpxC (Pseudomonas aeruginosa (strain ATCC 15692 / DSM 22644 / CIP 104116 / JCM 14847 / LMG 12228 / 1C / PRS 101 / PAO1), UniProt P47205); test: biochemical; assay type: biochemical; conditions: 5 nM P. aeruginosa LpxC, 2.5 μM substrate, 1 hour at room temperature
Description: (§1) Exemplary compounds from the above Examples were tested for ability to inhibit LpxC activity using an in vitro substrate deacetylation assay with ADDA™ analysis. Assay procedures and results are described below.
(§2) For ADDA™ analysis, an aliquot of assay sample was withdrawn from each well of the 384-well plate and applied to a Hypercarb cartridge (Optimize Technologies, USA) under conditions designed to retain analytes of interest. Analytes were eluted using 1:1:2 acetone:acetonitrile:water containing 5 mM ammonium acetate then analysed by triple-quadrupole mass spectrometry. Mass spectrometry was carried out using electrospray ionization in negative ion mode.
For IC50 determinations, peak areas of the substrate and product were compared to compute the proportion of substrate reacted by the LpxC enzyme at each compound concentration.

[2] = target: E. coli LpxC (Escherichia coli (strain K12), UniProt P0A725); test: in vitro substrate deacetylation assay for inhibition of LpxC (ADDA analysis); assay type: biochemical; conditions: 5 nM E. coli LpxC, 2.5 μM substrate, 1 hour at room temperature
Chain of E. coli LpxC (P0A725 whole entry): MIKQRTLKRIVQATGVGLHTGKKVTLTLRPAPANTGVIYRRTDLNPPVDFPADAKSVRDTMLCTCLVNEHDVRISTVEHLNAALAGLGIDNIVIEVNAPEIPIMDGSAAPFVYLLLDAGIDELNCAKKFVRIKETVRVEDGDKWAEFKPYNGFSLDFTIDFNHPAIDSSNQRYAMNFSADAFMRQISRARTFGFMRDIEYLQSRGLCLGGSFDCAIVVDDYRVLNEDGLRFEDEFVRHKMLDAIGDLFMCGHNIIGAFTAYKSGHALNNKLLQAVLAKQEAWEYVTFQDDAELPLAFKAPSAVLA
Description: as §1
Dilutions of test compound were pre-incubated with 5 nM P. aeruginosa or E. coli LpxC for 10 minutes at room temperature in 50 mM NaH2PO4, 500 mM sucrose, 0.2 mg/mL BSA, pH 7.2 and <1% DMSO. Reactions were initiated by the addition of 2× substrate (UDP-3-O—(R-3-hydroxydecanoyl)-N-acetylglucosamine, Carbosynth Ltd, UK, for P. aeruginosa LpxC and UDP-3-O—(R-3-hydroxymyristoyl)-N-acetylglucosamine, BOC Sciences, USA, for E. coli LpxC), in 50 mM NaH2PO4, 0.5 mg/mL BSA, pH 7.2, to a final concentration of 2.5 μM. Reactions proceeded for 1 hour at room temperature prior to quenching with and equal volume of 2% acetic acid.
as §2, with “mode. Daughter ion peaks representing detected substrate (P. aeruginosa: parent Q1 mass=775.8 amu, daughter Q3 mass=384.7 amu E. coli: parent Q1 mass=833.0 amu, daughter Q3 mass=385.0 amu, collision energy=analyte specific, dwell time=50 ms) were identified using a multiple-reaction monitoring protocol.” for “mode.”
Total activity (0% inhibition) was obtained from reactions containing no compound, and 100% inhibition is defined as reactions in the presence of 1 μM CHIR-090 (N-[(1S,2R)-2-hydroxy-1-[(hydroxyamino)carbonyl]propyl]-4-[2-[4-(4-morpholinylmethyl)phenyl]ethynyl]-benzamide). For IC50 determinations, peak areas of the substrate and product were compared to compute the proportion of substrate reacted by the LpxC enzyme at each compound concentration. The fractional activity was converted to percentage inhibition and plotted against compound concentration in ActivityBase™ and fit using a four-parameter logistic using non-linear regression to yield the IC50 value.

[3] = test system: wild-type E. coli BW25113; test: broth microdilution minimum inhibition concentration assay; assay type: cell-based; conditions: Escherichia coli; wild-type E. coli BW25113, 37° C. 16-20 h; read-out: E. coli WT MIC
Description: (§3) Exemplary compounds from the above Examples were tested to determine their minimum inhibitory concentration (MIC) for exemplary strains of Eschericia and Pseudomonas bacteria using broth microdilution methods. Assay procedures and results are described below.
(§4) Broth microdilution assays were conducted according to Clinical and Laboratory Standards Institute guidelines (CLSI, M07-A11: Clinical and Laboratory Standards Institute. Methods for Dilution Antimicrobial Susceptibility Tests for Bacteria that Grow Aerobically; Approved Standard—11th Edition. Wayne, PA: CLSI, 2018.). Briefly, a 0.5 McFarland standard suspension was made from bacterial isolates on non-selective, solid media. The inocula were adjusted to give a bacterial concentration of 1×10^6 CFU/mL. Serial doubling-dilutions of each compound were prepared in cation-adjusted Mueller-Hinton broth (Sigma-Aldrich) in 96-well microdilution plates. A 50 μL aliquot of the inoculum was added to each microdilution plate and, within 15 minutes, incubated at 37° C. in air for 16-20 h. […] The test was controlled by the determination of piperacillin MIC against both E. coli ATCC 25922 and P. aeruginosa ATCC 27853 and ensuring accordance with the ranges published in CLSI supplementary document M100 (CLSI, M100Ed29: Clinical and Laboratory Standards Institute. Performance Standards for Antimicrobial Susceptibility Testing, 29th Edition. Wayne, PA: CLSI, 2018.).
(§5) Multiple enterobacteriaceae strains were tested, including E. coli ATCC 25922 and K. pneumoniae ATCC 43816. WT E. coli BW25113 was tested with an isogenic mutant deficient in acrA mediated efflux by clean deletion. WT P. aeruginosa PAO1 was tested with an isogenic mutant deficient in MexA mediated efflux by clean deletion.
(§6) Experimental results are provided in Table 4, which provides MIC values for wild-type E. coli BW25113 (“E. coli WT MIC”), an isogenic mutant deficient in acrA mediated efflux by clean deletion (“E. coli KO MIC”), wild-type P. aeruginosa PAO1 (“P. aeruginosa WT MIC”), and an isogenic mutant deficient in MexA mediated efflux by clean deletion (“[…]”).

[4] = test system: E. coli BW25113 isogenic mutant deficient in acrA mediated efflux; test: as above; assay type: cell-based; conditions: Escherichia coli, BW25113, read-out: E. coli KO MIC
Description: as §3, §4, §5, §6

[5] = test system: P. aeruginosa PAO1 isogenic mutant deficient in MexA mediated efflux; test: as above; assay type: cell-based; conditions: Pseudomonas aeruginosa, PAO1, read-out: P. aeruginosa KO MIC
Description: as §3, §4, §5, §6

[6] = test system: wild-type P. aeruginosa PAO1; test: as above; assay type: cell-based; conditions: Pseudomonas aeruginosa
Description: as §3, §4, §5, §6

[7] = wild-type P. aeruginosa PAO1, 37° C. 16-20 h, read-out: P. aeruginosa WT MIC
[8] = PAO1, read-out: P. aeruginosa WT MIC

Row | Structure (SMILES) | IC50 [1] [nM] | IC50 [2] [nM] | MIC [3] [µM] | MIC [4] [µM] | MIC [5] [µM] | MIC [6, 7] [µM] | MIC [6, 8] [µM]
1 | O=C(N[C@@H]1C[C@H](C(=O)NCc2ccc(C#Cc3ccc(CN4CCOCC4)cc3)cc2)N(C(=O)C2CC2)C1)[C@@H]1C[C@H](F)CN1 [Example 9AJ] | < 50 | < 500 | 20 to 100 (≈ 12 to 60.2 µg/mL) | < 20 | < 20 | > 100 | –
2 | O=C(NC[C@H]1C[C@@H](NC(=O)[C@@H]2C[C@H](F)CN2)CN1C(=O)C1CC1)c1ccc(C#Cc2ccc(CN3CCOCC3)cc2)cc1 [Example 9AS] | < 50 | < 500 | < 20 | < 20 | < 20 | > 100 | –
3 | CC(C)C(=O)N1C[C@H](NC(=O)[C@@H]2C[C@@H](O)CN2)C[C@@H]1C(=O)NCc1ccc(C#Cc2ccc(CN3CCOCC3)cc2)cc1 [Example 9Y] | 50 to 100 | < 500 | > 100 | 20 to 100 (≈ 12 to 60.2 µg/mL) | 20 to 100 (≈ 12 to 60.2 µg/mL) | – | > 100
4 | O=C(N[C@@H]1C[C@H](C(=O)NCc2ccc(C#CC#CC3CC3)cc2)N(C(=O)C2CCNCC2)C1)[C@@H]1C[C@H](F)CN1 [Example 9P] | 100 to 1000 | 2500 to 10000 | > 100 | > 100 | > 100 | – | > 100
5 | CC(C)C(=O)N1C[C@H](NC(=O)[C@@H]2C[C@@H](C#N)CN2)C[C@@H]1C(=O)NCc1ccc(C#Cc2ccc(CN3CCOCC3)cc2)cc1 [Example 9AC, (2R,4R)-4-((2S,4R)-4-Cyanopyrrolidine-2-carboxamido)-1-isobutyryl-N-(4-((4-(morpholinomethyl)phenyl)ethynyl)benzyl)pyrrolidine-2-carboxamide] | < 50 | 500 to 2500 | > 100 | > 100 | > 100 | > 100 | –
6 | CC(C)C(=O)N1C[C@H](NC(=O)[C@@H]2C[C@H](F)CN2)C[C@@H]1C(=O)NCc1ccc(C#CC#Cc2ccccc2)cc1 [Example 9AT] | < 50 | 500 to 2500 | > 100 | < 20 | < 20 | > 100 | –
7 | O=C(NC[C@H]1C[C@@H](NC(=O)[C@@H]2C[C@H](F)CN2)CN1C(=O)C1CC1)c1ccc(C#Cc2ccc(CN3CCOCC3)cc2)c(F)c1 [Example 8, (2S,4S)—N-((3R,5R)-1-(cyclopropanecarbonyl)-5-((3-fluoro-4-((4-(morpholinomethyl)phenyl)ethynyl)benzamido)methyl)pyrrolidin-3-yl)-4-fluoropyrrolidine-2-carboxamide] | < 50 | < 500 | < 20 | < 20 | < 20 | 20 to 100 (≈ 12.4 to 62 µg/mL) | –
8 | CC(C)C(=O)N1C[C@H](NC(=O)[C@@H]2C[C@H](F)CN2)C[C@@H]1C(=O)NCc1ccc(C#CC2CC2)cc1 [Example 9BG] | 100 to 1000 | > 10000 | > 100 | > 100 | > 100 | – | > 100
9 | CC(C)C(=O)N1C[C@H](NC(=O)[C@@H]2CC(F)(F)CN2)C[C@@H]1C(=O)NCc1ccc(C#CC#CC2CC2)cc1 [Example 9G] | 50 to 100 | 500 to 2500 | > 100 | 20 to 100 (≈ 10.2 to 51.1 µg/mL) | 20 to 100 (≈ 10.2 to 51.1 µg/mL) | – | > 100
10 | CC(C)C(=O)N1C[C@H](NC(=O)[C@@H]2C[C@H](F)CN2)C[C@@H]1C(=O)NCc1ccc(C#Cc2ccccc2)cc1 [Example 9A] | – | – | > 100 | 20 to 100 (≈ 10.1 to 50.5 µg/mL) | 20 to 100 (≈ 10.1 to 50.5 µg/mL) | – | > 100
11 | CC(C)C(=O)N1C[C@H](NC(=O)[C@@H]2C[C@@H](O)CN2)C[C@@H]1C(=O)NCc1ccc(C#CC#CC2CC2)cc1 [Example 9Z] | – | – | > 100 | 20 to 100 (≈ 9.81 to 49.1 µg/mL) | 20 to 100 (≈ 9.81 to 49.1 µg/mL) | – | > 100
12 | CC(C)C(=O)N1C[C@H](NC(=O)[C@@H]2C[C@@H](F)CN2)C[C@@H]1C(=O)NCc1ccc(C#Cc2ccccc2)cc1 [Example 9E] | – | – | > 100 | > 100 | > 100 | – | > 100
13 | CC(C)C(=O)N1C[C@H](NC(=O)[C@@H]2C[C@H](O)CN2)C[C@@H]1C(=O)NCc1ccc(C#CC#CC2CC2)cc1 [Example 9U] | – | – | > 100 | > 100 | 20 to 100 (≈ 9.81 to 49.1 µg/mL) | – | > 100
